Test results taken from patent publication US12077503B2, “Substituted cyclic amides and their use as herbicides” (FMC CORPORATION, priority 2015, dated 2024).

Assays:
Type in all cases: in vivo
[1] = tested on: barnyardgrass (Echinochloa crus-galli); assay: Test B flooded paddy test; details: Echinochloa crus-galli, 360 h, Flood, 250 g ai/ha; visually evaluated after 13 to 15 d; read-out: Plant response rating, Barnyardgrass (0 to 100 scale where 0 is no effect and 100 is complete control)
Summary of the method: (§1)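 Rating scale 0–100 (visual, vs untreated controls) after a 13–15 d greenhouse period; application to the flood layer, 3 cm above soil and maintained; plants at 2-leaf stage when treated.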

[2] = tested on: sedge, umbrella (small-flower umbrella sedge, Cyperus difformis); assay: Test B flooded paddy test; details: Cyperus difformis, 360 h, Flood, 250 g ai/ha; visually evaluated after 13 to 15 d; read-out: Plant response rating, Sedge, Umbrella (0 to 100 scale where 0 is no effect and 100 is complete control)
Summary of the method: as §1

rice (Oryra sativa) = assay: Test B flooded paddy test; details: Oryza sativa, 360 h, Flood, 250 g ai/ha; visually evaluated after 13 to 15 d; read-out: Plant response rating, Rice (0 to 100 scale where 0 is no effect and 100 is complete control)
Summary of the method: as §1

[3] = tested on: ducksalad (Heteranthera limosa); assay: Test B flooded paddy test; details: Heteranthera limosa, 360 h, Flood, 250 g ai/ha; visually evaluated after 13 to 15 d; read-out: Plant response rating, Ducksalad (0 to 100 scale where 0 is no effect and 100 is complete control)
Summary of the method: as §1

[4] = tested on: Galium (catchweed bedstraw, Galium aparine); assay: Test A postemergence; details: Galium, post-emergence, 240 h, Postemergence
Summary of the method: (§2)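 Visual injury, scored on a 0–100 scale relative to untreated controls, was recorded about 10 d after application. Treatments were a preemergence soil spray over planted seeds or a postemergence spray on plants at the one- to two-leaf stage, 2 to 10 cm tall, all in loam soil–sand blend in the greenhouse.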

[5] = tested on: barnyardgrass (Echinochloa crus-galli); assay: Test A postemergence; details: Echinochloa crus-galli, post-emergence, 240 h, Postemergence
Summary of the method: as §2

corn (Zea mays) = assay: Test A postemergence; details: Zea mays, post-emergence, 240 h, Postemergence
Summary of the method: as §2

[6] = tested on: ryegrass, Italian (Italian ryegrass, Lolium multiflorum); assay: Test A postemergence; details: Lolium multiflorum, post-emergence, 240 h, Postemergence
Summary of the method: as §2

[7] = tested on: wheat (Triticum aestivum); assay: Test A postemergence; details: Triticum aestivum, post-emergence, 240 h, Postemergence
Summary of the method: as §2

Kochia (Kochia scoparia) [8] = assay: Test A postemergence; details: Bassia scoparia, post-emergence, 240 h, Postemergence
Summary of the method: as §2

[9] = tested on: giant foxtail (Setaria faberii); assay: Test A postemergence; details: Setaria faberi, post-emergence, 240 h, Postemergence
Summary of the method: as §2

[10] = tested on: pigweed (Amaranthus retroflexus); assay: Test A postemergence; details: Amaranthus retroflexus, post-emergence, 240 h, Postemergence
Summary of the method: as §2

[11] = tested on: blackgrass (Alopecurus myosuroides); assay: Test A postemergence; details: Alopecurus myosuroides, post-emergence, 240 h, Postemergence
Summary of the method: as §2

[12] = tested on: ragweed (common ragweed, Ambrosia elatior); assay: Test A postemergence; details: Ambrosia artemisiifolia, post-emergence, 240 h, Postemergence
Summary of the method: as §2

[13] = tested on: barnyardgrass (Echinochloa crus-galli); assay: Test A preemergence; details: Echinochloa crus-galli, pre-emergence, 240 h, Preemergence
Summary of the method: as §2

[14] = tested on: ryegrass, Italian (Italian ryegrass, Lolium multiflorum); assay: Test A preemergence; details: Lolium multiflorum, pre-emergence, 240 h, Preemergence
Summary of the method: as §2

Kochia (Kochia scoparia) [15] = assay: Test A preemergence; details: Bassia scoparia, pre-emergence, 240 h, Preemergence
Summary of the method: as §2

[16] = tested on: giant foxtail (Setaria faberii); assay: Test A preemergence; details: Setaria faberi, pre-emergence, 240 h, Preemergence
Summary of the method: as §2

[17] = tested on: pigweed (Amaranthus retroflexus); assay: Test A preemergence; details: Amaranthus retroflexus, pre-emergence, 240 h, Preemergence
[18] = tested on: ragweed (common ragweed, Ambrosia elatior); assay: Test A preemergence; details: Ambrosia artemisiifolia, pre-emergence, 240 h, Preemergence
Summary of the method: as §2

CN1C[C@H](c2ccc(Cl)cc2)[C@@H](C(=O)Nc2cccc(F)n2)C1=O [Compound 1399]
pest or weed control at 250 g/ha [1]: 85%
pest or weed control at 250 g/ha [2]: 0%
pest or weed control at 250 g/ha (rice (Oryra sativa)): 15%
pest or weed control at 250 g/ha [3]: 100%
pest or weed control at 31 g/ha ([4]; 31 g ai/ha, 0 is no effect, 100 is complete control, read-out: Galium plant response rating (0 to 100 scale)): 40%
pest or weed control at 125 g/ha ([4]; 125 g ai/ha, visual injury after approx. 10 d, 0 to 100 scale, 0 no effect, 100 complete control, read-out: Plant response rating, Galium): 60%
pest or weed control at 31 g/ha ([5]; 31 g ai/ha, 0 is no effect, 100 is complete control, read-out: Barnyardgrass plant response rating (0 to 100 scale)): 90%
pest or weed control at 125 g/ha ([5]; 125 g ai/ha, visual injury after approx. 10 d, 0 to 100 scale, 0 no effect, 100 complete control, read-out: Plant response rating, Barnyardgrass): 90%
plant injury at 31 g/ha (corn (Zea mays); 31 g ai/ha, 0 is no effect, 100 is complete control, read-out: Corn plant response rating (0 to 100 scale)): 0%
Corn plant response rating (crop injury, 0 = no effect, 100 = complete kill) at 125 g/ha (corn (Zea mays); 125 g ai/ha, visual injury after approx. 10 d, 0 to 100 scale, 0 no effect, 100 complete control): 0%
pest or weed control at 31 g/ha ([6]; 31 g ai/ha, 0 is no effect, 100 is complete control, read-out: Ryegrass, Italian plant response rating (0 to 100 scale)): 20%
pest or weed control at 125 g/ha ([6]; 125 g ai/ha, visual injury after approx. 10 d, 0 to 100 scale, 0 no effect, 100 complete control, read-out: Plant response rating, Ryegrass, Italian): 20%
plant injury at 31 g/ha ([7]; 31 g ai/ha, 0 is no effect, 100 is complete control, read-out: Wheat plant response rating (0 to 100 scale)): 0%
plant injury at 125 g/ha ([7]; 125 g ai/ha, visual injury after approx. 10 d, 0 to 100 scale, 0 no effect, 100 complete control, read-out: Plant response rating, Wheat): 20%
pest or weed control at 31 g/ha (Kochia (Kochia scoparia) [8]; 31 g ai/ha, 0 is no effect, 100 is complete control, read-out: Kochia plant response rating (0 to 100 scale)): 50%
pest or weed control at 125 g/ha (Kochia (Kochia scoparia) [8]; 125 g ai/ha, visual injury after approx. 10 d, 0 to 100 scale, 0 no effect, 100 complete control, read-out: Plant response rating, Kochia): 70%
pest or weed control at 31 g/ha ([9]; 31 g ai/ha, 0 is no effect, 100 is complete control, read-out: Foxtail, Giant plant response rating (0 to 100 scale)): 70%
pest or weed control at 125 g/ha ([9]; 125 g ai/ha, visual injury after approx. 10 d, 0 to 100 scale, 0 no effect, 100 complete control, read-out: Plant response rating, Foxtail, Giant): 90%
pest or weed control at 31 g/ha ([10]; 31 g ai/ha, 0 is no effect, 100 is complete control, read-out: Pigweed plant response rating (0 to 100 scale)): 0%
pest or weed control at 125 g/ha ([10]; 125 g ai/ha, visual injury after approx. 10 d, 0 to 100 scale, 0 no effect, 100 complete control, read-out: Plant response rating, Pigweed): 40%
pest or weed control at 31 g/ha ([11]; 31 g ai/ha, 0 is no effect, 100 is complete control, read-out: Blackgrass plant response rating (0 to 100 scale)): 20%
pest or weed control at 125 g/ha ([11]; 125 g ai/ha, visual injury after approx. 10 d, 0 to 100 scale, 0 no effect, 100 complete control, read-out: Plant response rating, Blackgrass): 20%
pest or weed control at 31 g/ha ([12]; 31 g ai/ha, 0 is no effect, 100 is complete control, read-out: Ragweed plant response rating (0 to 100 scale)): 0%
pest or weed control at 125 g/ha ([12]; 125 g ai/ha, visual injury after approx. 10 d, 0 to 100 scale, 0 no effect, 100 complete control, read-out: Plant response rating, Ragweed): 40%
pest or weed control at 31 g/ha ([13]; 31 g ai/ha, 0 to 100 scale where 0 is no effect and 100 is complete control, read-out: Barnyardgrass plant response rating): 80%
pest or weed control at 125 g/ha ([13]; 125 g ai/ha, 0 to 100 scale (0 no effect, 100 complete control), read-out: Plant response rating, Barnyardgrass): 90%
pest or weed control at 31 g/ha ([14]; 31 g ai/ha, 0 to 100 scale where 0 is no effect and 100 is complete control, read-out: Ryegrass, Italian plant response rating): 0%
pest or weed control at 125 g/ha ([14]; 125 g ai/ha, 0 to 100 scale (0 no effect, 100 complete control), read-out: Plant response rating, Ryegrass, Italian): 40%
pest or weed control at 31 g/ha (Kochia (Kochia scoparia) [15]; 31 g ai/ha, 0 to 100 scale where 0 is no effect and 100 is complete control, read-out: Kochia plant response rating): 20%
pest or weed control at 125 g/ha (Kochia (Kochia scoparia) [15]; 125 g ai/ha, 0 to 100 scale (0 no effect, 100 complete control), read-out: Plant response rating, Kochia): 70%
pest or weed control at 31 g/ha ([16]; 31 g ai/ha, 0 to 100 scale where 0 is no effect and 100 is complete control, read-out: Foxtail, Giant plant response rating): 90%
pest or weed control at 125 g/ha ([16]; 125 g ai/ha, 0 to 100 scale (0 no effect, 100 complete control), read-out: Plant response rating, Foxtail, Giant): 90%
pest or weed control at 31 g/ha ([17]; 31 g ai/ha, 0 to 100 scale where 0 is no effect and 100 is complete control, read-out: Pigweed plant response rating): 30%
pest or weed control at 125 g/ha ([17]; 125 g ai/ha, 0 to 100 scale (0 no effect, 100 complete control), read-out: Plant response rating, Pigweed): 30%
pest or weed control at 31 g/ha ([18]; 31 g ai/ha, 0 to 100 scale where 0 is no effect and 100 is complete control, read-out: Ragweed plant response rating): 50%
pest or weed control at 125 g/ha ([18]; 125 g ai/ha, 0 to 100 scale (0 no effect, 100 complete control), read-out: Plant response rating, Ragweed): 60%
